Test results: the supplement of paper PMC10307832

Columns and labels:
Assay in all cases: relative viability (nuclei count vs DMSO), 5 days (fraction); higher = more cells survive
[1] = compound: C1CSC2=C(C(=O)N1)SC3=C2C=C(C=C3)O [kb NB 142-70] + CC(C)C[C@H](NC(=O)[C@H](Cc1ccccc1)NC(=O)c1cnccn1)B(O)O [Bortezomib] (partner 0.002 µM)
How it was run: (§1)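 Medians of duplicate plates are given as relative viability. That measure is the nuclei count in treated wells divided by the count in vehicle wells. Counts were taken on 4× images of lung cancer cell lines in 1536-well plates, 5 days after pin-tool dosing the day after seeding with one drug alone or a fixed anchor-drug dose plus five library-drug doses (not always all listed) in √10 steps.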

kb NB 142-70 + OSI-027 = compound: C1CSC2=C(C(=O)N1)SC3=C2C=C(C=C3)O [kb NB 142-70] + COc1cccc2cc(-c3nc([C@H]4CC[C@H](C(=O)O)CC4)n4ncnc(N)c34)[nH]c12 [OSI-027] (partner 0.5 µM)
How it was run: as §1

[2] = compound: C1CSC2=C(C(=O)N1)SC3=C2C=C(C=C3)O [kb NB 142-70] + CS(=O)(=O)N1CCN(Cc2cc3nc(-c4cccc5[nH]ncc45)nc(N4CCOCC4)c3s2)CC1 [Pictilisib] (partner 1 µM)
How it was run: as §1

kb NB 142-70 + Olaparib = compound: C1CSC2=C(C(=O)N1)SC3=C2C=C(C=C3)O [kb NB 142-70] + O=C(c1cc(Cc2n[nH]c(=O)c3ccccc23)ccc1F)N1CCN(C(=O)C2CC2)CC1 [Olaparib] (partner 8 µM)
How it was run: as §1

[3] = compound: NCC(=O)Nc1ccc(-n2nc(C(F)(F)F)cc2-c2ccc3c(ccc4ccccc43)c2)cc1 + Cc1nc(Nc2ncc(C(=O)Nc3c(C)cccc3Cl)s2)cc(N2CCN(CCO)CC2)n1 [Dasatinib] (partner 0.075 µM)
How it was run: as §1

| Cell Line | relative viability ([1]; first compound 0.1 µM) | relative viability ([1]; first compound 1 µM) | relative viability ([1]; first compound 3.162 µM) | relative viability (kb NB 142-70 + OSI-027; first compound 0.1 µM) | relative viability (kb NB 142-70 + OSI-027; first compound 1 µM) | relative viability (kb NB 142-70 + OSI-027; first compound 3.162 µM) | relative viability ([2]; first compound 0.1 µM) | relative viability ([2]; first compound 1 µM) | relative viability ([2]; first compound 3.162 µM) | relative viability (kb NB 142-70 + Olaparib; first compound 0.1 µM) | relative viability (kb NB 142-70 + Olaparib; first compound 1 µM) | relative viability (kb NB 142-70 + Olaparib; first compound 3.162 µM) | relative viability ([3]; first compound 0.02 µM) | relative viability ([3]; first compound 0.06325 µM) | relative viability ([3]; first compound 0.2 µM) | relative viability ([3]; first compound 0.6325 µM) | relative viability ([3]; first compound 2 µM) |
| --- | --- | --- | --- | --- | --- | --- | --- | --- | --- | --- | --- | --- | --- | --- | --- | --- | --- |
| HCC-827 | 1.09 | 1.02 | 0.978 | 0.775 | 0.759 | 0.775 | 0.832 | 1.13 | 0.781 | 0.655 | 0.62 | 0.404 | 0.371 | 0.282 | 0.336 | 0.329 | 0.35 |
| HOP-62 | 0.919 | 1 | 0.569 | 0.868 | 0.751 | 0.699 | 0.736 | 0.606 | 0.73 | 0.457 | 0.39 | 0.333 | 0.725 | 0.629 | 0.699 | 0.652 | 0.679 |
| IA-LM | 0.765 | 1.06 | 0.647 | – | – | – | 0.412 | 0.529 | 0.51 | 0.841 | 0.771 | 0.807 | – | – | – | – | – |
| LC-2-ad | 1.12 | 1.03 | 0.916 | 0.779 | 0.842 | 0.699 | 0.508 | 0.545 | 0.311 | 0.681 | 0.716 | 0.649 | 0.478 | 0.677 | 0.609 | 0.714 | 0.577 |
| LCLC-97TM1 | 0.853 | 0.563 | 0.123 | 0.635 | 0.407 | 0.237 | 0.216 | 0.232 | 0.236 | 0.404 | 0.371 | 0.198 | 0.901 | 0.809 | 0.797 | 0.827 | 0.752 |
| LCLC-103H | 1.17 | 1.09 | 1.07 | 0.493 | 0.452 | 0.454 | 0.631 | 0.652 | 0.638 | 0.751 | 0.749 | 0.847 | 0.439 | 0.458 | 0.485 | 0.465 | 0.433 |
| LK-2 | – | – | – | 0.19 | 0.163 | 0.163 | 0.483 | 0.42 | 0.183 | 0.822 | 0.551 | 0.323 | 0.32 | 0.325 | 0.271 | 0.266 | 0.263 |
| LOU-NH91 | 0.467 | 0.431 | 0.353 | 0.699 | 0.695 | 0.651 | 0.526 | 0.505 | 0.41 | 0.879 | 0.917 | 0.552 | 0.577 | 0.601 | 0.536 | 0.558 | 0.541 |
| LU99A | 1.29 | 0.995 | 0.732 | 0.325 | 0.327 | 0.317 | 0.305 | 0.294 | 0.298 | 0.274 | 0.291 | 0.251 | 0.505 | 0.602 | 0.538 | 0.598 | 0.347 |
| LXF-289 | 1.02 | 0.942 | 0.895 | 0.737 | 0.695 | 0.681 | 0.739 | 0.737 | 0.749 | 1.04 | 1.05 | 0.772 | 0.188 | 0.246 | 0.315 | 0.218 | 0.241 |
| NCI-H358 | – | – | – | 0.669 | 0.464 | 0.105 | 0.35 | 0.3 | 0.189 | 0.531 | 0.489 | 0.297 | 0.165 | 0.138 | 0.153 | 0.173 | 0.189 |
| NCI-H522 | – | – | – | 0.737 | 0.658 | 0.608 | – | – | – | 0.69 | 0.587 | 0.509 | – | 0.831 | 0.874 | 0.854 | 0.921 |
| NCI-H1299 | 1.01 | 1.07 | 1.05 | – | – | – | 0.802 | 0.889 | 0.32 | 1.02 | 0.949 | 0.837 | – | – | – | – | – |
| NCI-H1395 | – | – | – | 0.674 | 0.757 | 0.638 | 0.901 | 0.687 | 0.6 | 0.45 | 0.492 | 0.43 | 0.442 | 0.422 | 0.358 | 0.444 | 0.39 |
| NCI-H1563 | 0.921 | 0.84 | 0.956 | 0.773 | 0.739 | 0.752 | 0.654 | 0.674 | 0.634 | – | – | – | 0.47 | 0.479 | 0.477 | 0.469 | 0.525 |
| NCI-H1648 | – | – | – | 0.253 | 0.217 | 0.237 | – | – | – | 0.645 | 0.707 | 0.738 | – | – | – | – | – |
| NCI-H1703 | 0.255 | 0.361 | 0.209 | – | – | – | 0.249 | 0.286 | 0.255 | 0.47 | 0.387 | 0.455 | – | – | – | – | – |
| NCI-H1793 | – | – | – | 0.34 | 0.311 | 0.294 | 0.313 | 0.379 | 0.386 | 0.88 | 1.02 | 0.508 | 0.352 | 0.431 | 0.391 | 0.404 | 0.411 |
| NCI-H1944 | – | – | – | 0.386 | 0.443 | 0.426 | 0.358 | 0.375 | 0.41 | 0.434 | 0.414 | 0.482 | 0.199 | 0.221 | 0.208 | 0.211 | 0.24 |
| NCI-H2170 | – | – | – | 0.699 | 0.694 | 0.588 | 0.299 | 0.275 | 0.227 | 0.661 | 0.596 | 0.543 | 0.522 | 0.695 | 0.494 | 0.581 | 0.694 |
| NCI-H2342 | – | – | – | 0.649 | 0.612 | 0.638 | – | – | – | 0.397 | 0.458 | 0.408 | 0.313 | 0.331 | 0.312 | 0.285 | 0.305 |
| SK-MES-1 | – | – | – | 0.653 | 0.676 | 0.27 | 0.333 | 0.325 | 0.235 | 0.719 | 0.484 | 0.181 | 0.473 | 0.372 | 0.365 | 0.355 | 0.406 |
| SW 900 | – | – | – | 0.552 | 0.478 | 0.295 | – | – | – | 0.906 | 1.14 | 0.789 | – | 0.69 | 0.852 | 0.515 | 0.592 |
